Assay results as given in article PMC12767106, “In Situ Assembly of Transformable Monopeptide on Activated Neutrophils Attenuates NETs‐Induced Hepatocellular Carcinoma Metastasis by Disrupting NE Nuclear Translocation” (Advanced Science, 2025).

Legend:
[1] = test system: Hepa1-6/luc liver and lung metastasis; assay: Liver and lung metastasis model; format: in vivo, mouse; settings: Hepa1-6/luc cells via spleen or tail vein, 300 µM in 200 µL i.v. every two days, 16 days, n = 5
From the text: (§1) Submitted to Advanced Science
effector T cells (CD45+CD3+CD8+)/(CD45+CD3+CD4+), tumor cells were stained with anti-CD45-FITC
(Biolegend), anti-CD3ε-PerCP-Cy5.5 (Biolegend), anti-CD4-APC (Biolegend), and anti-CD8a-PE (Biolegend)
antibodies according to the standard protocol. For evaluation of NK cells (CD45+CD3-NK1.1+), tumor cells
were stained with anti-CD45-FITC (Biolegend), anti-CD3-PE (Biolegend) and anti-CD49b-APC (Biolegend)
antibodies and examined using flow cytometry. For MDSCs (CD45+CD11b+Gr-1+) analysis, tumor cells were
stained with anti-CD45-FITC, anti-CD11b-BrilliantViolet-510 (Biolegend), anti -F4/80-PE (Biolegend), and
anti-Gr-1-APC (Biolegend) antibodies for flow cytometry examination (BD FACS Canto SORP, USA). The
software FlowJo V10.6.2 was used for data analysis. To further explore the immunomodulatory effects of FTP-
NPs. Tumor tissues were harvested for immune profiling. Plasma cytokine levels, including IL-6, IL-10, and
TNF-α, were measured using commercially available ELISA kits to assess the immune activation induced by
Experimental liver and lung metastasis model
Six-week-old male C57BL/6J mice (20–25 g) were used to establish liver and lung metastasis models. Hepa1-
6/luc cells (1 × 10^6 cells) were injected into the spleen or tail vein of the mice to induce liver or lung
metastasis, respectively. For the liver metastasis model, Hepa1-6/luc cells were injected into the spleen, allowing
tumor cells to circulate and establish metastases in the liver. For the lung metastasis model, Hepa1-6/luc cells
were injected via the tail vein, leading to the formation of metastases in the lungs. Following cell implantation, […]
euthanized, and metastases were assessed macroscopically. […]
injecting D-Luciferin (150 mg/kg) intraperitoneally, and tumor burden was quantified using the IVIS Spectrum […]
conducted, and metastatic lesions were assessed under an inverted microscope (Axiovert 200, Zeiss, Germany). […]
300 μM per injection) for mice. […] (b) Fluorescence quantized chart […]
experiments. Statistical significance was calculated by one-way ANOVA, *p < 0.050.(c, d) Photographs of lung […]

[2] = test system: mice bearing Hepa1-6/luc tumors; assay: Biodistribution by in vivo and ex vivo fluorescence imaging; set-up: species or system mouse
Experimental: To further evaluate the tumor tissue accumulation of FTP‐NPs in vivo, we conducted in vivo biodistribution studies using a murine model. For biodistribution studies, mice bearing Hepa1‐6/luc tumors were treated by NFTP‐NPs and FTP‐NPs via tail vein injection and monitored over time using an In‐Vivo system (IVIS, Figure 4a). After 12, 24, 48, and 168 h, tumors and major organs were collected for ex vivo fluorescence imaging (Figure S16a, Supporting Information). The fluorescence signal of the FTP‐NPs group was still detectable in tumor tissues after more than 3 days and lasted up to 7 days. In situ receptor‐mediated transformation of FTP‐NPs to NE‐fibril clusters in the tumor microenvironment may be responsible for the prolonged preservation of the fluorescence signal in FTP‐NPs‐treated mice, even after 7 days. […] The fluorescence signal of tumor tissue in the FTP‐NPs group at 48 h was 7.1‐fold higher than that in the NFTP‐NPs group (Figure S16b, Supporting Information).
as §1
Figure S16. Time-dependent ex vivo fluorescence (FL) images (a) and quantitative analysis (b) of tumor tissues and major organs (heart (H), liver (Li), spleen (Sp), lung (Lu), kidney (K), intestine(I), muscle (M), skin (Sk), and brain (B)) collected at 12, 24, 48, and 168 h post-injection of NFTP-NPs and FTP-NPs.
Figure S17. Gating strategy for T cell analysis. The tumor-bearing mice from each group were euthanized on day 20 post-treatment. Fifty thousand events were collected for each sample in the study. CD45+ cell counts determined the total T cell number, and CD8+ T cells were then gated within CD3+ T lymphocytes.
Figure S18. Corresponding flow cytometric quantification of CD8+T cells (CD45+CD3+CD8+, n = 3). Data are presented as mean ± s.d., n = 3 independent experiments. Statistical significance was calculated by one-way […]

Hepa1-6 cells = assay: Transwell migration and Matrigel invasion assay; format: cell-based, mouse
Experimental: Cell migration and invasion assay […]
Cell migration was monitored during the overnight culture of the cells. Hepa1-6/luc cells (5×10^5cells/well) were placed in the upper chamber of an 8µm transwell system and incubated in serum-free DMEM, while various treated media with 20% FBS were added to the lower chamber of 24-well plates. After incubation for 48 h, the transmembrane cells were washed, fixed with 4% paraformaldehyde, stained with crystal violet, and observed under a microscope (Axiovert 200, Zeiss, Germany). All the experiments were performed thrice. The Transwell invasion assay was performed using a similar procedure. Hepa1-6/luc cells (1×10^6cells/well) were seeded in the upper chamber of an 8µm transwell system coated with Matrigel (356231, Corning, New York, USA) and incubated in serum-free DMEM. The remaining operations were performed according to the steps of the migration assay. All the experiments were performed thrice.
Matrigel tube formation assay
Murine C166 endothelial cells (3×10^4cells/well) were placed on 96-well plates coated with Matrigel (356231, Corning, New York, USA) and incubated with various treatments. […]
In vitro permeability assays and trans-endothelial invasion assays […]

[3] = tail vein injection, IVIS imaging

| Substance | liver and lung metastasis (bioluminescent signals, number of metastatic foci) [1] | fluorescence signal of tumor tissue relative to NFTP-NPs group ([2]; 48 h after tail vein injection, ex vivo imaging) [fold] | duration of fluorescence signal in tumor tissues [2, 3] | number of invasive cells (Hepa1-6 cells; Matrigel-coated transwell, versus Control and NFTP-NPs groups) | number of migrating cells (Hepa1-6 cells; transwell, 48 h, versus other control groups) | fluorescence signal in major organs by 72 h [2, 3] |
| --- | --- | --- | --- | --- | --- | --- |
| PpIX-GFFVLK-EAIPMSIPPEVK [FTP-NPs] | weakened considerably and significantly lower | 7.1 | up to 7 days | significantly lower | significantly reduced | – |
| PpIX-GGGAAK-EAIPMSIPPEVK [NFTP-NPs, nanoparticles of the non-fibrillar transformable control peptide NFTP] | obvious metastases | – | – | – | – | essentially undetectable |
